The results in this text go back to patent US20230034660A1, “PEPTIDES THAT ENHANCE NMDA RECEPTOR FUNCTION AND USE THEREOF” (University of Pittsburgh - Of the Commonwealth System of …, priority 2019, published 2023).

This assay addresses T1, ZnT1 binding to GluN2A C-terminal peptide sequences (Mus musculus, UniProt Q60738).
T1 construct: made in house; peptides: Fmoc spot synthesis on nitrocellulose
T1 sequence (Q60738 1-503): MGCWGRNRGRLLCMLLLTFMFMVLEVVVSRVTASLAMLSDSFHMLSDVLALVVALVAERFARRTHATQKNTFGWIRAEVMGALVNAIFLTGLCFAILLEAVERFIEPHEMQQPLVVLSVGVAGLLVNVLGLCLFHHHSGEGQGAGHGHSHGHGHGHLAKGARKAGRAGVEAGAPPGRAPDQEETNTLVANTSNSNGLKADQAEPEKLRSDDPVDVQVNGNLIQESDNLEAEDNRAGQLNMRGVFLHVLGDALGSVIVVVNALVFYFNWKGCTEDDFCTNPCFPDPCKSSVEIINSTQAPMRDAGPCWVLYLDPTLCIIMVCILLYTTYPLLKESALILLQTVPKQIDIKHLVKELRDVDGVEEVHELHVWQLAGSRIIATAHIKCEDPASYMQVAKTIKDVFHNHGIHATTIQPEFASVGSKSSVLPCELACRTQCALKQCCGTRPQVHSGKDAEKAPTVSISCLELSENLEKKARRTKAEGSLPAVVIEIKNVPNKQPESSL
Description: Peptide spot array repeated in the presence of N2AZ or scN2AZ. Conditions: 100 μM, compared to scN2AZ control. The procedure:
FIG. 2: N2AZ reduces ZnT1 binding to GluN2A C-terminal peptide sequences. Quantification of peptide spot arrays of GluN2A C-terminus region (residues 1390-1464) using the same peptide segments as FIG. 1B (Peptides 1-61 correspond to fragments of SEQ ID NO: 21, as listed in Table 1). […] Mean±SEM (n=4). (Inset) Representative peptide spot-array in scN2AZ (top) and N2AZ (bottom).
Far-Western protein-binding affinity assays were performed as previously described (Brittain et al., 2011; Yeh et al., 2017) (Moutal et al., 2017). Peptide spot arrays (15 mers) spanning the proximal C-terminus residues 1390-1464 of mouse GluN2A (Uniprot# P35436) in overlapping 1 aa steps were constructed using the Spots-synthesis method. Standard 9-fluorenylmethoxy carbonyl (Fmoc) chemistry was used to synthesize the peptides and spot them onto nitrocellulose membranes pre-derivatized with a polyethylene glycerol spacer (Intavis). […] Finally, the membrane was incubated in secondary antibody for 45 minutes, washed 3 times for 5 minutes in TBST, and visualized by infrared fluorescence (Li-Cor). […]
To study the effect of ZnT1 on NMDAR modulation, a peptide was designed to disrupt the ZnT1-GluN2A interaction. […] Next, the peptide spot arrays were probed with flag-tagged ZnT1-enriched cell lysates and ZnT1 binding was visualized and quantified with immunofluorescence against the flag tag (FIG. 1A). […]

On to NDSYLRSSL [Peptide N2AZ], for which the “ZnT1 binding to the spot array in the presence of peptide” value is reported as “significantly reduced”.
